Measurements: PubChem BioAssay AID1963854 (Molecular Pharmacology Branch, DTP, NCI, 2024)

System: 186277-243-T-J2-PDC complex spheroid viability
Test: Anticancer human tumor 186277-243-T-J2-PDC patient-derived colon adenocarcinoma cell line growth inhibition [POLQ]
Conditions: for IC50: curve of first compound; for viability, T/C: stronger effect = lower value
Method in brief: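 Three-cell-type spheroids modelling solid tumor plus stroma served as the readout system; POL inhibitors were tested individually and in combination, concentration ranges set by clinical Cmax where known.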

[1] = second compound 0.0316 µM, first compound 0.00316 µM
[2] = second compound 0.0316 µM, first compound 0.01 µM
[3] = second compound 0.0316 µM, first compound 0.0316 µM
[4] = second compound 0.0316 µM, first compound 0.1 µM
[5] = second compound 0.0316 µM, first compound 0.316 µM
[6] = second compound 0.0316 µM, first compound 1 µM
[7] = second compound 0.1 µM, first compound 0.00316 µM
[8] = second compound 0.1 µM, first compound 0.01 µM
[9] = second compound 0.1 µM, first compound 0.0316 µM
[10] = second compound 0.1 µM, first compound 0.1 µM
[11] = second compound 0.1 µM, first compound 0.316 µM
[12] = second compound 0.1 µM, first compound 1 µM
[13] = second compound 0.316 µM, first compound 0.00316 µM
[14] = second compound 0.316 µM, first compound 0.01 µM
[15] = second compound 0.316 µM, first compound 0.0316 µM
[16] = second compound 0.316 µM, first compound 0.1 µM
[17] = second compound 0.316 µM, first compound 0.316 µM
[18] = second compound 0.316 µM, first compound 1 µM
[19] = second compound 1 µM, first compound 0.00316 µM
[20] = second compound 1 µM, first compound 0.01 µM
[21] = second compound 1 µM, first compound 0.0316 µM
[22] = second compound 1 µM, first compound 0.1 µM
[23] = second compound 1 µM, first compound 0.316 µM
[24] = second compound 1 µM, first compound 1 µM
[25] = second compound 3.16 µM, first compound 0.00316 µM
[26] = second compound 3.16 µM, first compound 0.01 µM
[27] = second compound 3.16 µM, first compound 0.0316 µM
[28] = second compound 3.16 µM, first compound 0.1 µM
[29] = second compound 3.16 µM, first compound 0.316 µM
[30] = second compound 3.16 µM, first compound 1 µM
[31] = second compound 10 µM, first compound 0.00316 µM
[32] = second compound 10 µM, first compound 0.01 µM
[33] = second compound 10 µM, first compound 0.0316 µM
[34] = second compound 10 µM, first compound 0.1 µM
[35] = second compound 10 µM, first compound 0.316 µM
[36] = second compound 10 µM, first compound 1 µM
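Further: spheroids exposed to compounds for seven days.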
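Wherever viability, T/C is given: 100% = DMSO vehicle control viability.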

COc1cccc(OCCCN)c1-c1cc(Nc2cnc(C#N)cn2)n[nH]1 + Cc1cccc(N(C)C(=O)C2C(O)CCN2c2nc(C)cc(C(F)(F)F)c2C#N)c1
IC50 (second compound 0.0316 µM): < 3.16 nM
IC50 (second compound 0.1 µM): < 3.16 nM
IC50 (second compound 0.316 µM): < 3.16 nM
IC50 (second compound 1 µM): < 3.16 nM
IC50 (second compound 3.16 µM): < 3.16 nM
IC50 (second compound 10 µM): < 3.16 nM
viability, T/C [1]: 38.4%
viability, T/C [2]: 14.9%
viability, T/C [3]: 11.1%
viability, T/C [4]: 10%
viability, T/C [5]: 9.49%
viability, T/C [6]: 10.2%
viability, T/C [7]: 33.4%
viability, T/C [8]: 15.7%
viability, T/C [9]: 10.9%
viability, T/C [10]: 9.64%
viability, T/C [11]: 10.2%
viability, T/C [12]: 9.26%
viability, T/C [13]: 30.1%
viability, T/C [14]: 12%
viability, T/C [15]: 10.7%
viability, T/C [16]: 10.1%
viability, T/C [17]: 9.4%
viability, T/C [18]: 8.53%
viability, T/C [19]: 30.9%
viability, T/C [20]: 11.5%
viability, T/C [21]: 9.4%
viability, T/C [22]: 9.54%
viability, T/C [23]: 9.34%
viability, T/C [24]: 9.69%
viability, T/C [25]: 34.2%
viability, T/C [26]: 11.5%
viability, T/C [27]: 9.08%
viability, T/C [28]: 9.36%
viability, T/C [29]: 9.81%
viability, T/C [30]: 9.01%
viability, T/C [31]: 17.9%
viability, T/C [32]: 9.92%
viability, T/C [33]: 8.74%
viability, T/C [34]: 8.3%
viability, T/C [35]: 9.78%
viability, T/C [36]: 9.02%

CCc1c2c(nc3ccc(O)cc13)-c1cc3c(c(=O)n1C2)COC(=O)[C@]3(O)CC + COC1C(OC(N)=O)C(O)C(Oc2ccc3c(O)c(NC(=O)c4ccc(O)c(CC=C(C)C)c4)c(=O)oc3c2C)OC1(C)C
IC50 (second compound 0.0316 µM): 6.67 nM
IC50 (second compound 0.1 µM): 6.31 nM
IC50 (second compound 0.316 µM): 6.22 nM
IC50 (second compound 1 µM): 5.81 nM
IC50 (second compound 3.16 µM): 4.06 nM
IC50 (second compound 10 µM): 4.2 nM
viability, T/C [1]: 60.8%
viability, T/C [2]: 44.3%
viability, T/C [3]: 21.4%
viability, T/C [4]: 11.2%
viability, T/C [5]: 8.38%
viability, T/C [6]: 6.45%
viability, T/C [7]: 65%
viability, T/C [8]: 39.7%
viability, T/C [9]: 21.9%
viability, T/C [10]: 10.4%
viability, T/C [11]: 8.32%
viability, T/C [12]: 6.78%
viability, T/C [13]: 61.1%
viability, T/C [14]: 42%
viability, T/C [15]: 22.4%
viability, T/C [16]: 10.3%
viability, T/C [17]: 7.76%
viability, T/C [18]: 6.8%
viability, T/C [19]: 61.8%
viability, T/C [20]: 39.2%
viability, T/C [21]: 21.6%
viability, T/C [22]: 10.2%
viability, T/C [23]: 8.22%
viability, T/C [24]: 6.39%
viability, T/C [25]: 53.1%
viability, T/C [26]: 38.8%
viability, T/C [27]: 19.7%
viability, T/C [28]: 9.79%
viability, T/C [29]: 7.9%
viability, T/C [30]: 6.76%
viability, T/C [31]: 52.9%
viability, T/C [32]: 41.4%
viability, T/C [33]: 19%
viability, T/C [34]: 8.88%
viability, T/C [35]: 8.76%
viability, T/C [36]: 6.74%
